Laboratory results published in ChEMBL document CHEMBL2331181, “Synthesis and in vitro cytotoxic activity evaluation of novel heterocycle bridged carbothioamide type isosteviol derivatives as antitumor agents” (Bioorg Med Chem Lett, 2013).

Columns and labels:
Type in all cases: functional, cell-based
HeLa = experiment: Cytotoxicity against human HeLa cells after 48 hrs by MTT assay
SGC-7901 = experiment: Cytotoxicity against human SGC7901 cells after 48 hrs by MTT assay; settings: SGC-7901, 48 h
Raji = experiment: Cytotoxicity against human Raji cells after 48 hrs by MTT assay
A549 = experiment: Cytotoxicity against human A549 cells after 48 hrs by MTT assay; settings: A549, 48 h

Row | SMILES | IC50 (HeLa) [µM] | IC50 (SGC-7901) [µM] | IC50 (Raji) [µM] | IC50 (A549) [µM]
1 | CCOC(=O)[C@]1(C)CCC[C@@]2(C)[C@@H]3CC[C@@]4(C)C[C@]3(CC[C@@H]21)c1cn(C(=S)Nc2cccc(C)c2)nc14 | > 50 | 15.3 | 14.2 | 31.9
2 | CCOC(=O)[C@]1(C)CCC[C@@]2(C)[C@@H]3CC[C@@]4(C)C[C@]3(CC[C@@H]21)c1cn(C(=S)Nc2ccc(C)cc2)nc14 | 40.5 | 14.7 | 12.5 | > 50
3 | CCOC(=O)[C@]1(C)CCC[C@@]2(C)[C@@H]3CC[C@@]4(C)C[C@]3(CC[C@@H]21)c1cn(C(=S)Nc2ccccc2OC)nc14 | > 50 | > 50 | 10.1 | > 50
4 | CCOC(=O)[C@]1(C)CCC[C@@]2(C)[C@@H]3CC[C@@]4(C)C[C@]3(CC[C@@H]21)c1cn(C(=S)Nc2cccc(OC)c2)nc14 | > 50 | 12.5 | 15.1 | 23.3
5 | CCOC(=O)[C@]1(C)CCC[C@@]2(C)[C@@H]3CC[C@@]4(C)C[C@]3(CC[C@@H]21)c1cn(C(=S)Nc2ccc(OC)cc2)nc14 | 13.9 | 9.65 | 6.51 | 17.7
6 | CCOC(=O)[C@]1(C)CCC[C@@]2(C)[C@@H]3CC[C@@]4(C)C[C@]3(CC[C@@H]21)c1cn(C(=S)Nc2ccccc2[N+](=O)[O-])nc14 | 36.9 | 16.4 | 19.6 | 38.3
7 | CCOC(=O)[C@]1(C)CCC[C@@]2(C)[C@@H]3CC[C@@]4(C)C[C@]3(CC[C@@H]21)c1cn(C(=S)Nc2cccc([N+](=O)[O-])c2)nc14 | > 50 | 16 | 16.9 | > 50
8 | CCOC(=O)[C@]1(C)CCC[C@@]2(C)[C@@H]3CC[C@@]4(C)C[C@]3(CC[C@@H]21)c1cn(C(=S)Nc2ccc([N+](=O)[O-])cc2)nc14 | 36.2 | 34.2 | 17.9 | 35.3
9 | CCOC(=O)[C@]1(C)CCC[C@@]2(C)[C@@H]3CC[C@@]4(C)C[C@]3(CC[C@@H]21)c1cn(C(=S)Nc2c(C)cccc2C)nc14 | 49 | 14.8 | 12.1 | > 50
10 | CCOC(=O)[C@]1(C)CCC[C@@]2(C)[C@@H]3CC[C@@]4(C)C[C@]3(CC[C@@H]21)c1cn(C(=S)Nc2ccc(Cl)cc2Cl)nc14 | > 50 | 20.1 | 24.5 | > 50
11 | CCOC(=O)[C@]1(C)CCC[C@@]2(C)[C@@H]3CC[C@@]4(C)C[C@]3(CC[C@@H]21)[C@@H]1CON(C(=S)Nc2ccc(F)cc2)[C@@H]14 | > 50 | > 50 | > 50 | > 50
12 | CCOC(=O)[C@]1(C)CCC[C@@]2(C)[C@@H]3CC[C@@]4(C)C[C@]3(CC[C@@H]21)[C@@H]1CON(C(=S)Nc2ccccc2Cl)[C@@H]14 | > 50 | 43.6 | 35.6 | > 50
13 | CCOC(=O)[C@]1(C)CCC[C@@]2(C)[C@@H]3CC[C@@]4(C)C[C@]3(CC[C@@H]21)[C@@H]1CON(C(=S)Nc2cccc(Cl)c2)[C@@H]14 | > 50 | > 50 | > 50 | > 50
14 | CCOC(=O)[C@]1(C)CCC[C@@]2(C)[C@@H]3CC[C@@]4(C)C[C@]3(CC[C@@H]21)[C@@H]1CON(C(=S)Nc2ccc(Cl)cc2)[C@@H]14 | > 50 | > 50 | > 50 | > 50
15 | CCOC(=O)[C@]1(C)CCC[C@@]2(C)[C@@H]3CC[C@@]4(C)C[C@]3(CC[C@@H]21)[C@@H]1CON(C(=S)Nc2ccccc2Br)[C@@H]14 | > 50 | > 50 | > 50 | > 50
16 | CCOC(=O)[C@]1(C)CCC[C@@]2(C)[C@@H]3CC[C@@]4(C)C[C@]3(CC[C@@H]21)[C@@H]1CON(C(=S)Nc2cccc(Br)c2)[C@@H]14 | > 50 | 36.4 | > 50 | > 50
17 | CCOC(=O)[C@]1(C)CCC[C@@]2(C)[C@@H]3CC[C@@]4(C)C[C@]3(CC[C@@H]21)[C@@H]1CON(C(=S)Nc2ccc(Br)cc2)[C@@H]14 | > 50 | > 50 | > 50 | > 50
18 | CCOC(=O)[C@]1(C)CCC[C@@]2(C)[C@@H]3CC[C@@]4(C)C[C@]3(CC[C@@H]21)[C@@H]1CON(C(=S)Nc2ccccc2C)[C@@H]14 | > 50 | 38.3 | 24 | > 50
19 | CCOC(=O)[C@]1(C)CCC[C@@]2(C)[C@@H]3CC[C@@]4(C)C[C@]3(CC[C@@H]21)[C@@H]1CON(C(=S)Nc2cccc(C)c2)[C@@H]14 | > 50 | 34.1 | 43.2 | > 50
20 | CCOC(=O)[C@]1(C)CCC[C@@]2(C)[C@@H]3CC[C@@]4(C)C[C@]3(CC[C@@H]21)[C@@H]1CON(C(=S)Nc2ccc(C)cc2)[C@@H]14 | > 50 | 37.2 | 27.6 | 45.8

Row | SMILES | IC50 (HeLa) [µM] | IC50 (SGC-7901) [µM] | IC50 (Raji) [µM] | IC50 (A549) [µM]
21 | CCOC(=O)[C@]1(C)CCC[C@@]2(C)[C@@H]3CC[C@@]4(C)C[C@]3(CC[C@@H]21)[C@@H]1CON(C(=S)Nc2ccccc2OC)[C@@H]14 | > 50 | > 50 | > 50 | > 50
22 | CCOC(=O)[C@]1(C)CCC[C@@]2(C)[C@@H]3CC[C@@]4(C)C[C@]3(CC[C@@H]21)[C@@H]1CON(C(=S)Nc2cccc(OC)c2)[C@@H]14 | > 50 | > 50 | > 50 | > 50
23 | CCOC(=O)[C@]1(C)CCC[C@@]2(C)[C@@H]3CC[C@@]4(C)C[C@]3(CC[C@@H]21)[C@@H]1CON(C(=S)Nc2ccc(OC)cc2)[C@@H]14 | > 50 | > 50 | 37.4 | > 50
24 | CCOC(=O)[C@]1(C)CCC[C@@]2(C)[C@@H]3CC[C@@]4(C)C[C@]3(CC[C@@H]21)[C@@H]1CON(C(=S)Nc2ccccc2[N+](=O)[O-])[C@@H]14 | > 50 | > 50 | 35.4 | > 50
25 | CCOC(=O)[C@]1(C)CCC[C@@]2(C)[C@@H]3CC[C@@]4(C)C[C@]3(CC[C@@H]21)[C@@H]1CON(C(=S)Nc2cccc([N+](=O)[O-])c2)[C@@H]14 | > 50 | > 50 | > 50 | > 50
26 | CCOC(=O)[C@]1(C)CCC[C@@]2(C)[C@@H]3CC[C@@]4(C)C[C@]3(CC[C@@H]21)[C@@H]1CON(C(=S)Nc2ccc([N+](=O)[O-])cc2)[C@@H]14 | > 50 | 49.8 | 23.5 | > 50
27 | CCOC(=O)[C@]1(C)CCC[C@@]2(C)[C@@H]3CC[C@@]4(C)C[C@]3(CC[C@@H]21)[C@@H]1CON(C(=S)Nc2c(C)cccc2C)[C@@H]14 | > 50 | 27.4 | 19.7 | 41.6
28 | CCOC(=O)[C@]1(C)CCC[C@@]2(C)[C@@H]3CC[C@@]4(C)C[C@]3(CC[C@@H]21)[C@@H]1CON(C(=S)Nc2ccc(Cl)cc2Cl)[C@@H]14 | > 50 | 25.1 | 21.9 | 43.2
29 | CCOC(=O)[C@]1(C)CCC[C@@]2(C)[C@@H]3CC[C@@]4(C)C[C@]3(CC[C@@H]21)c1cn(C(=S)Nc2ccccc2)nc14 | 27.1 | 15.7 | 18.9 | 17.6
30 | CCOC(=O)[C@]1(C)CCC[C@@]2(C)[C@@H]3CC[C@@]4(C)C[C@]3(CC[C@@H]21)c1cn(C(=S)Nc2ccccc2F)nc14 | 47.5 | 20.7 | 11.1 | 18.8
31 | CCOC(=O)[C@]1(C)CCC[C@@]2(C)[C@@H]3CC[C@@]4(C)C[C@]3(CC[C@@H]21)c1cn(C(=S)Nc2cccc(F)c2)nc14 | > 50 | 19.5 | 23.7 | 33.8
32 | CCOC(=O)[C@]1(C)CCC[C@@]2(C)[C@@H]3CC[C@@]4(C)C[C@]3(CC[C@@H]21)c1cn(C(=S)Nc2ccc(F)cc2)nc14 | 13.3 | 18.4 | 17.7 | 33.5
33 | CCOC(=O)[C@]1(C)CCC[C@@]2(C)[C@@H]3CC[C@@]4(C)C[C@]3(CC[C@@H]21)c1cn(C(=S)Nc2ccccc2Cl)nc14 | > 50 | 26.2 | 21.1 | 26.6
34 | CCOC(=O)[C@]1(C)CCC[C@@]2(C)[C@@H]3CC[C@@]4(C)C[C@]3(CC[C@@H]21)c1cn(C(=S)Nc2cccc(Cl)c2)nc14 | > 50 | 16.9 | 16 | 39.1
35 | CCOC(=O)[C@]1(C)CCC[C@@]2(C)[C@@H]3CC[C@@]4(C)C[C@]3(CC[C@@H]21)c1cn(C(=S)Nc2ccc(Cl)cc2)nc14 | 39 | 21.7 | 13 | 20
36 | CCOC(=O)[C@]1(C)CCC[C@@]2(C)[C@@H]3CC[C@@]4(C)C[C@]3(CC[C@@H]21)c1cn(C(=S)Nc2ccccc2Br)nc14 | 43.4 | 17.2 | 19.6 | 38.1
37 | CCOC(=O)[C@]1(C)CCC[C@@]2(C)[C@@H]3CC[C@@]4(C)C[C@]3(CC[C@@H]21)c1cn(C(=S)Nc2cccc(Br)c2)nc14 | > 50 | 19.6 | 15.8 | 24.8
38 | CCOC(=O)[C@]1(C)CCC[C@@]2(C)[C@@H]3CC[C@@]4(C)C[C@]3(CC[C@@H]21)c1cn(C(=S)Nc2ccc(Br)cc2)nc14 | > 50 | 7.06 | 13.9 | 24.5
39 | CCOC(=O)[C@]1(C)CCC[C@@]2(C)[C@@H]3CC[C@@]4(C)C[C@]3(CC[C@@H]21)c1cn(C(=S)Nc2ccccc2C)nc14 | > 50 | 38.1 | 15.2 | 32.1
